PubChem BioAssay AID1963834 (Molecular Pharmacology Branch, DTP, NCI, 2024)

Tested on: 873145-292-R-J1-PDC complex spheroid viability
Test: Anticancer human tumor 873145-292-R-J1-PDC patient-derived renal clear cell carcinoma cell line growth inhibition [POLQ]
Conditions: for IC50: curve of first compound; for viability, T/C: stronger effect = lower value; active = viability on the fitted dose curve at most 10% of control; inactive = the rest
Protocol: Multicellular complex tumor spheroid response to Polymerase (POL) inhibitors (novobiocin, ART-558, RP6685) in combination with a variety of drugs and investigational agents in selected tumor cell lines
The POL inhibitors (novobiocin, ART-558, and RP6685) were evaluated both individually and in combination with standard of care and investigational anticancer small molecules within a complex spheroid model of solid tumors. . Complex spheroids include a stromal component modeled by human endothelial cells (HUVEC) and fibroblasts modeled by human mesenchymal stem cells (MSCs). The concentration ranges selected for each drug and investigational agent were based upon clinically achievable concentrations if the clinical Cmax of the agent was known.
Compounds. The drugs and investigational agents: novobiocin (NSC847541), ART-558 (NSC835418), RP-6685 (NSC848927), peposertib (NSC802822), ceralasertib (NSC780249), elimusertib (NSC800525), camonsertib (NSC841442), AZD-1390 (NSC803789), olaparib (NSC753686), talazoparib (NSC767125), rucaparib (NSC756644), sotorasib (NSC818433), MRTX-1133 (NSC836407), SN-38 (NSC673596), topotecan (NSC609699), epotoside (NSC141540), doxorubicin (NSC123127), gemcitabine (NSC613327), 5-fluorouracil (NSC19893), paclitaxel (NSC125973), vemurafenib (NSC761431), MSA-2 (NSC828583), SN-011 (NSC837082), adavosertib (NSC754352), prexasertib (NSC758257), carboplatin (NSC241240) and oxaliplatin (NSC266046), were obtained from the National Cancer Institute (NCI) Developmental Therapeutics Program Chemical Repository (21). The FDA-approved anticancer drug set is available from the Developmental Therapeutics Program at https://dtp.cancer.gov/organization/dscb/obtaining/. […] The stock solutions were prepared in dimethyl sulfoxide (DMSO, Sigma-Aldrich, St. Louis, MO, cat. D2650), except for the platinum compounds which were prepared in saline (Quality Biological, Gaithersburg, MD, cat. 114-055-101), at 800-fold the tested concentration and stored at -70 degrees C prior to their use. All drugs and investigational agents were tested over a range starting from a high concentration at or near the clinical Cmax and decreasing in half-log increments. If the clinical Cmax for an agent had not been determined, the highest concentration tested was 10 microM, except for SN-38, which was tested at a high concentration of 1 microM.
Cell Culture. All cells were maintained in an incubator at 37 degrees C and 5% CO2 with 95% humidity. The PDC lines were cultured according to standard operating procedures established by the NCI PDMR (https://pdmr.cancer.gov). Table 3 of the manuscript, lists the cell lines along with the number of the three cell types plated to form the mct-spheroids and media for tumor cell growth. After thawing, all PDC lines, except 997537-175-T-J1-PDC and 415267-285-R-J2-PDC, were cultured in Matrigel-coated flasks prepared with a working solution of 1X Ham's F-12 nutrient mix, without supplementation (Thermo Fisher Scientific, cat. 11765054), 100 U/mL penicillin-streptomycin (Thermo Fisher Scientific, cat. 15140122), and 2.5% Matrigel (Corning Inc., Corning, NY, cat. 354248) for the first three passages. The two PDC lines 997537-175-T-J1-PDC and 415267-285-R-J2-PDC were cultured on uncoated flasks. The 857933-349-R-J2-PDC line was cultured in 6C/Colon 1B media containing advanced DMEM/F-12 (Thermo Fisher Scientific, cat. 12634028), 10 mM HEPES (Thermo Fisher Scientific, cat. 15630080), 1X GlutaMAX supplement (Thermo Fisher Scientific, cat. 35050061), 0.1 mg/mL primocin (InvivoGen, San Diego, CA, cat. ant-pm-2), 10% defined fetal bovine serum, heat inactivated (HyClone Laboratories Inc., Logan, UT, cat. SH30070.03HI), 50% L-WRN conditioned media (ATCC, cat. CRL-3276), 1.25 mM N-Acetyl-L-cysteine (Sigma-Aldrich, cat. A9165), 10 mM nicotinamide (Sigma-Aldrich, cat. N0636), 1X B-27 supplement (Thermo Fisher Scientific, cat. 17504044), 1X N-2 supplement (Thermo Fisher Scientific, cat. […]

[1] = second compound 0.0316 µM, first compound 0.0316 µM
[2] = second compound 0.0316 µM, first compound 0.1 µM
[3] = second compound 0.0316 µM, first compound 0.316 µM
[4] = second compound 0.0316 µM, first compound 1 µM
[5] = second compound 0.0316 µM, first compound 3.16 µM
[6] = second compound 0.0316 µM, first compound 10 µM
[7] = second compound 0.1 µM, first compound 0.0316 µM
[8] = second compound 0.1 µM, first compound 0.1 µM
[9] = second compound 0.1 µM, first compound 0.316 µM
[10] = second compound 0.1 µM, first compound 1 µM
[11] = second compound 0.1 µM, first compound 3.16 µM
[12] = second compound 0.1 µM, first compound 10 µM
[13] = second compound 0.316 µM, first compound 0.0316 µM
[14] = second compound 0.316 µM, first compound 0.1 µM
[15] = second compound 0.316 µM, first compound 0.316 µM
[16] = second compound 0.316 µM, first compound 1 µM
[17] = second compound 0.316 µM, first compound 3.16 µM
[18] = second compound 0.316 µM, first compound 10 µM
[19] = second compound 1 µM, first compound 0.0316 µM
[20] = second compound 1 µM, first compound 0.1 µM
[21] = second compound 1 µM, first compound 0.316 µM
[22] = second compound 1 µM, first compound 1 µM
[23] = second compound 1 µM, first compound 3.16 µM
[24] = second compound 1 µM, first compound 10 µM
[25] = second compound 3.16 µM, first compound 0.0316 µM
[26] = second compound 3.16 µM, first compound 0.1 µM
[27] = second compound 3.16 µM, first compound 0.316 µM
[28] = second compound 3.16 µM, first compound 1 µM
[29] = second compound 3.16 µM, first compound 3.16 µM
[30] = second compound 3.16 µM, first compound 10 µM
[31] = second compound 10 µM, first compound 0.0316 µM
[32] = second compound 10 µM, first compound 0.1 µM
[33] = second compound 10 µM, first compound 0.316 µM
[34] = second compound 10 µM, first compound 1 µM
[35] = second compound 10 µM, first compound 3.16 µM
[36] = second compound 10 µM, first compound 10 µM
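Note: spheroids exposed to compounds for 7 days before viability readout.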
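Throughout, for viability, T/C: luminescence signal used as surrogate for viable cell content.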

O=C(c1cc(Cc2n[nH]c(=O)c3ccccc23)ccc1F)N1CCN(C(=O)C2CC2)CC1 + COC1C(OC(N)=O)C(O)C(Oc2ccc3c(O)c(NC(=O)c4ccc(O)c(CC=C(C)C)c4)c(=O)oc3c2C)OC1(C)C
inactive: viability, T/C [1] 112% | viability, T/C [2] 94.8% | viability, T/C [3] 106% | viability, T/C [4] 97.2% | viability, T/C [5] 109% | viability, T/C [6] 103% | viability, T/C [7] 117% | viability, T/C [8] 94.9% | viability, T/C [9] 90.8% | viability, T/C [10] 96.2% | viability, T/C [11] 92.6% | viability, T/C [12] 100% | viability, T/C [13] 106% | viability, T/C [14] 97.5% | viability, T/C [15] 93.2% | viability, T/C [16] 90.8% | viability, T/C [17] 103% | viability, T/C [18] 93.2% | viability, T/C [19] 94.5% | viability, T/C [20] 104% | viability, T/C [21] 100% | viability, T/C [22] 87.2% | viability, T/C [23] 101% | viability, T/C [24] 103% | viability, T/C [25] 108% | viability, T/C [26] 107% | viability, T/C [27] 106% | viability, T/C [28] 94.2% | viability, T/C [29] 99.5% | viability, T/C [30] 96.2% | viability, T/C [31] 88% | viability, T/C [32] 103% | viability, T/C [33] 96.3% | viability, T/C [34] 92.2% | viability, T/C [35] 107% | viability, T/C [36] 97.2%
> 10 µM: IC50 (second compound 0.0316 µM) | IC50 (second compound 0.1 µM) | IC50 (second compound 0.316 µM) | IC50 (second compound 1 µM) | IC50 (second compound 3.16 µM) | IC50 (second compound 10 µM)

COc1cc2cc(C(=O)CCC(=O)O)sc2cc1OC + COC1C(OC(N)=O)C(O)C(Oc2ccc3c(O)c(NC(=O)c4ccc(O)c(CC=C(C)C)c4)c(=O)oc3c2C)OC1(C)C
> 10 µM: IC50 (second compound 0.0316 µM) | IC50 (second compound 0.1 µM) | IC50 (second compound 0.316 µM) | IC50 (second compound 1 µM) | IC50 (second compound 3.16 µM) | IC50 (second compound 10 µM)
inactive: viability, T/C [1] 106% | viability, T/C [2] 93.8% | viability, T/C [3] 106% | viability, T/C [4] 101% | viability, T/C [5] 91.8% | viability, T/C [6] 94.3% | viability, T/C [7] 105% | viability, T/C [8] 97.7% | viability, T/C [9] 94.7% | viability, T/C [10] 91.7% | viability, T/C [11] 108% | viability, T/C [12] 102% | viability, T/C [13] 107% | viability, T/C [14] 93.8% | viability, T/C [15] 94.7% | viability, T/C [16] 89.8% | viability, T/C [17] 97.6% | viability, T/C [18] 94.2% | viability, T/C [19] 108% | viability, T/C [20] 87.4% | viability, T/C [21] 109% | viability, T/C [22] 100% | viability, T/C [23] 102% | viability, T/C [24] 92.1% | viability, T/C [25] 103% | viability, T/C [26] 104% | viability, T/C [27] 89% | viability, T/C [28] 95.1% | viability, T/C [29] 100% | viability, T/C [30] 98.1% | viability, T/C [31] 93.4% | viability, T/C [32] 88.2% | viability, T/C [33] 94.5% | viability, T/C [34] 97.6% | viability, T/C [35] 99.2% | viability, T/C [36] 96.7%
